Measurements published in patent US8048926B2, “L-DOPA amide derivatives and uses thereof” (Yissum Research Development Company of the Hebrew …, priority 2003, dated 2011).
Several values for one entry are separate records, joined by “and”; a condition that tells them apart may be missing. Identical values can stand only once.

Key:
DOPA decarboxylase = biological target: T1, DOPA decarboxylase (Mus musculus, UniProt O88533); assay: DOPA-decarboxylase assay (substrate test); assay type: biochemical; parameters: activity of DOPA decarboxylase with the substance as substrate: unit not given here; conditions: mouse striatum enzyme
T1 construct: using the mouse striatum as a source of the decarboxylase enzyme; from tissue; host or cells: mouse striatum
T1 sequence (O88533 1-480): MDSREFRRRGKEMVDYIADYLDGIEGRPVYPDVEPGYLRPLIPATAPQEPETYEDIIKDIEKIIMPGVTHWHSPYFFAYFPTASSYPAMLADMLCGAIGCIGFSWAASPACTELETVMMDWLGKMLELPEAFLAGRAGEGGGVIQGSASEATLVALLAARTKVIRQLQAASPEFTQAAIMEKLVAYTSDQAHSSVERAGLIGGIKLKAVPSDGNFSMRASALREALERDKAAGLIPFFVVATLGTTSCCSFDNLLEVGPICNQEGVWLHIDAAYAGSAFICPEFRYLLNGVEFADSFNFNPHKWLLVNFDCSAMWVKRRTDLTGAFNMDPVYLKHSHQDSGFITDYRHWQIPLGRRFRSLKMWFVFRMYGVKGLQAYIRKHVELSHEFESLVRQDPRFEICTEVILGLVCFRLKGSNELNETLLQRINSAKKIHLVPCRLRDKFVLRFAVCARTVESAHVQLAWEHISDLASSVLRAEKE
Procedure: DOPA-decarboxylase assay: As discussed hereinabove, one of the limitations associated with treatment with L-DOPA is its decarboxylation in the periphery by a DOPA decarboxylase, which reduces the amount the amount of L-DOPA that crosses the BBB.
The assay was carried out according to Hadjiconstantinou et al. [Aromatic L-amino acid decarboxylase activity of mouse striatum is modulated via dopamine receptors. J Neurochem. 1993 June; 60(6):2175-80], using the mouse striatum as a source of the decarboxylase enzyme.
The activity of the DOPA decarboxylase was thus tested with L-DOPA, DOPA-ethyl ester and LDA. L-DOPA ethyl ester (Compound 1), known as a much poorer substrate of the decarboxylase, served as a control was used as a control in these assays.

[1] = cited from earlier work
[2] = cited from earlier work; remark: listed apart in the source
[3] = test system: unilaterally 6-hydroxydopamine-lesioned male rats; assay: Rotation experiments (rotometer), LDA administered intravenously; assay type: in vivo, rat; conditions: for CCW (counter clockwise rotations) / CW (clockwise rotations) / CW − CCW: carbidopa 4 mg/kg ip 15 minutes before, one line per rat, preliminary
Procedure: (§1) The in vivo activity of LDA administered intravenously (iv) and intraperitoneally (ip) was evaluated using rotations experiments, conducted and based in accordance with published studies, as follows:
(§2) Briefly, Dunnet's experiment uses PD induced animal models which are treated with a unilateral lesion to the brain that effects their motorial behavior. In case of rats, they turn away from the side of the lesion when treated with an agent which increases the dopamine brain level. In order to quantify this effect, a device called rotometer is used, which records the circling behavior of the tested rat by counting the number of clockwise (CW) and counter clockwise (CCW) rotations the animal is turning in a hemisphere-shaped bowl which encourages a circling behavior.
(§3) Thus, twenty unilaterally 2,4,5-trihydroxyphenethylamine (6-hydroxydopamine)-lesioned male rats, weighing about 300 grams (obtained from Harlan, Rehovoth Israel) were treated with LDA and carbidopa, as is detailed hereinbelow. […] Pharmacol Toxicol. 93(2):66-70].
(§4) Treatment was performed by intravenously or intraperitoneally administering the LDA.
Intravenous (iv) Experiments: Rats were intravenously injected with 24 mg/kg or 40 mg/kg LDA. All rats received 4 mg/kg carbidopa, intraperitoneally, 15 minutes before LDA administration.

[4] = test system: unilaterally 6-hydroxydopamine-lesioned male rats; assay: Rotation experiments (rotometer), LDA administered intraperitoneally; assay type: in vivo, rat
Procedure: as §1, §2, §3, §4
Intraperitoneal Experiments: Four rats were treated with 6-hydroxydopamine (8 μg/rat). Rats were then administered with carbidopa (4 mg/kg i.p), and 15 minutes thereafter with 15 mg/kg LDA, administered intraperitoneally. Immediately after LDA injection the rotometer was activated and the rats were monitored during 3 hours.

[5] = LDA 15 mg/kg ip, carbidopa 4 mg/kg ip 15 minutes before, monitored during 3 hours, one line per rat, preliminary

SMILES	activity of DOPA decarboxylase with the substance as substrate (DOPA decarboxylase; Substrate 50 micromoles)	activity of DOPA decarboxylase with the substance as substrate (DOPA decarboxylase; Substrate 100 micromoles)	activity of DOPA decarboxylase with the substance as substrate (DOPA decarboxylase; Substrate 150 micromoles)	activity of DOPA decarboxylase with the substance as substrate (DOPA decarboxylase; Substrate 250 micromoles)	activity of DOPA decarboxylase with the substance as substrate (DOPA decarboxylase; Substrate 500 micromoles)	activity of DOPA decarboxylase with the substance as substrate (DOPA decarboxylase; Substrate 1000 micromoles)	substrate of DOPA decarboxylase, in words (DOPA decarboxylase)	water solubility [2]	other results
CCOC(=O)[C@@H](N)Cc1ccc(O)c(O)c1 [Compound 1, L-DOPA ethyl ester]	227	278	328	371	357	350	poor substrate	highly water-soluble	hydrolysis to L-DOPA before reaching the brain ([1]; in vivo): fast hydrolysis
N[C@@H](Cc1ccc(O)c(O)c1)C(=O)O [L-DOPA, 3,4-dihydroxy-L-phenylalanine]	3241	3839	3828	4332	4612	3933		poor water solubility	share of administered levodopa that enters the brain unaltered ([1]; peripheral administration): 1-3%
NC(=O)[C@@H](N)Cc1ccc(O)c(O)c1 [LDA + Carbidopa]									CCW (counter clockwise rotations) ([3]; LDA 24 mg/kg iv): 128 and 134; CW (clockwise rotations) ([3]; LDA 24 mg/kg iv): 686 and 629; CW − CCW ([3]; LDA 24 mg/kg iv): 558 and 495; CCW (counter clockwise rotations) ([3]; LDA 40 mg/kg iv): 724 and 14 and 59; CW (clockwise rotations) ([3]; LDA 40 mg/kg iv): 1563 and 970 and 573; CW − CCW ([3]; LDA 40 mg/kg iv): 839 and 956 and 514; CCW (counter clockwise rotations) [4, 5]: 22 and 50 and 74 and 109; CW (clockwise rotations) [4, 5]: 56 and 361 and 123 and 111; CW − CCW [4, 5]: 34 and 311 and 49 and 2
NC(=O)C(N)Cc1ccc(O)c(O)c1 (stereo not drawn) [LDA, α-amino-3,4-dihydroxy-benzenepropanamide]							not a substrate		effect of co-administration of carbidopa on the activity of LDA ([3]; increasing relative amount of carbidopa with respect to LDA): positively affect the activity of LDA; duration of the rotation effect ([3]; intravenous LDA together with carbidopa, data not shown): more than 2 hours; improving the behavior of lesioned animals ([4]; LDA administered intraperitoneally): highly active; activity of the enzyme (formation of dopamine) with the substance as substrate, in words (DOPA decarboxylase; assay performed twice): No activity of the enzyme was detected
